Like-named read-outs stand apart in the source and are kept apart here.
How the values were obtained:
[1] = cytotoxicity on virus-free MT-4 cells (MTT); assay type: cell-based; settings: human, MT-4 cells (virus-free)
Method: Cytotoxicity of a given product is assessed in the same manner in the lower portion of the plate where the test is conducted by incubating serially diluted products over virus-free cells, to thereby determine the toxic effect of products on cells. The result is given as CC50, i.e. the concentration at which 50% of cells are dead due to product toxicity. Selectivity (selectivity index, SI) of a given product is defined as a CC50/IC50 ratio. This parameter is of great importance since the selectivity index of a fairly efficient product is high.

HIV-2 ROD = experiment: anti-HIV activity in MT-4 cells (MTT), HIV-2 ROD; assay type: cell-based
Method: (§1) T MT-4 lymphocyte cell line which had been transformed into a continuous cell line by an HTLV infection, a virus associated with one form of leukemia, was used to test the antiviral activity (anti-HIV) of AZT- and d4T-conjugated compounds according to the invention, respectively. A characteristic feature of such cells is lack of survival following an HIV infection. The test is based on protection provided by the product (like AZT) against this viral destructive effect. Products were tested in serially diluted solutions in a 96-well plate. In the upper portion of the microplate, products were tested by incubation at various concentrations with cells and virus (in triplicate), so as to determine the concentration of product which affords cell protection against the viral destructive effect. IC50 of the product is taken as the concentration where a 50% loss of viable cell count is recorded. Viable cell count was done with MTT, a yellow tetrazolium compound which undergoes enzymatic reduction (at the mitochondrial level in viable cells) into a purple colored formazan compound. Wells containing viable cells are purple in colour, whereas dead cells give a persistent yellow color. Measurement of optical density (O.D.) allows this effect to be quantified.

HIV-1 IIIB = experiment: anti-HIV activity in MT-4 cells (MTT), HIV-1 IIIB; assay type: cell-based
Method: as §1

[2] = test system: Limulus Amoebocyte Lysate
[3] = test system: murine predendritic cells (CD-DM); experiment: maturation of murine predendritic cells into dendritic cells (flow cytometry of surface markers); assay type: cell-based, C57BI/6 mice; settings: for CD40 MFI: 48 hour
Method: The marrow was aspirated from the femur and tibia bones of (C57BI/6, 6 to 8 week-old) mice. The marrow suspension was screened through a 70 μm cell sieve in order to obtain a single cell suspension. Marrow cells were resuspended into Isocove's modified Dulbecco medium (IMDM) supplemented with 10% of heat inactivated foetal calf serum (iFCS) and antibiotics. Cells were incubated overnight at 37° C., under CO2 and a moisture saturated atmosphere, inside 6-well microtiter plates. Next day (day 0), non adherent cells were collected and washed. Viable cells were counted by trypan blue dye exclusion test. Cell concentration was adjusted to 2×10^5 cells/ml in IMDM containing […] and 20 ng/ml of murine recombinant IL-4 (rmIL-4) and plates were further incubated. On the 3rd day, there were added freshly prepared mGM-CSF and rmIL-4 at a concentration of 10 ng/ml. On the 6th day, non adherent cells were collected, washed and counted by trypan blue dye exclusion. Cell concentration was adjusted to 2×10^5 cells/ml in IMDM containing 10 ng/ml of rmGM-CSF and rmIL-4, and plates were further incubated. On the 8th day, non adherent cells made up of both mature and immature dendritic cells (CD-DM) were collected and used in product co-incubation experiments.
After a 48 hour incubation period, cells were collected and stored for flow cytometry analysis Flow cytometry analysis CD-DM were washed with PBS containing 2% iFCS and 0.01% sodium azide (FACS buffer). Then, cells were incubated on ice for 30 minutes with optimal concentrations of anti-CD86 antibody; anti-CD40 antibody, FITC conjugated anti-MCHII antibody, and […]. Then, cells were washed 3 times. Labeling of anti-CD86 and anti-CD40 antibodies was performed by incubating cells on ice for 30 minutes with peroxidase-conjugated donkey anti-rat immunoglobulins. Following incubation, cells were washed and resuspended into FACS medium. Fluorescence was measured with the aid of FACScan® flow cytometry. 15000 pulse events were analyzed per sample. Cells which had been incubated with the conjugate alone were used as a negative control.

Leishmania LmCPb antigen = experiment: Leishmania LmCPb immunization: IL-4 and γ IFN in lymph node cell supernatant (ELISA); assay type: in vivo, CBA mice; settings: lymph node cell cultures challenged with the parasite antigen
Method: CBA mice were administered through the tail a single subcutaneous injection (100 μl) of Leishmania parasite LmCPb antigen (3 μg per mouse)±adjuvant. […] Eleven days after injection, inguinal and periaortic lymph node cells (2 groups of 3 mice each) were cultured in triplicate in presence of purified LmCPb antigen or whole extract of the parasite (amastigote). At day 4, a supernatant sample is withdrawn and stored at −20° C. for IL-4 and γ IFN assay. Finally, tritiated thymidine (^3H-TdR) is added to the cultures to measure the proliferation reaction.
Cytokine assay is carried out by a sandwich ELISA assay (OptEIA®) kits for γ IFN and IL-4, BD, PharMingen, Basel, Switzerland) and the proliferation response is determined by measuring thymidine take-up (^3H-TdR). ^3H-TdR take-up given in cpm as the arithmetic mean value±standard deviation ([…] of 3 mice each) and IL-4 concentration given in pg/ml are individually reported for each pool of 3 mice as the arithmetic mean of two measurements (cytokine assay).
An LmCPb stock solution is prepared at a concentration of 150 μg/ml in PBS
Adjuvants: The stock solution of OM-294-MP-AC is prepared at a concentration of 0.9 mg/ml in water for injection, with addition of 0.1% triethanolamine.
Antigen-adjuvant mixture: Adjuvant preparation (4 volumes), which had been adjusted to an adequate final concentration in sterile PBS, is mixed just prior to injection with the antigen stock solution (1 volume).

(NANP)6P2P30 antigen = experiment: (NANP)6P2P30 murine immunization model: anti-(NANP)6P2P30 IgG (ELISA); assay type: in vivo, BALB/c mice; settings: two s.c. shots, serum at 5 weeks, FIG. 79
[4] = 1 EU = 0.08 ng E. coli 055:B5 LPS
[5] = acyl-dipeptide-like compounds, diluted 0.1 mg/ml solution

SMILES | CC50 [1] [nM] | IC50 (HIV-2 ROD) [nM] | IC50 (HIV-1 IIIB) [nM] | LAL ng of LPS equivalent per mg of product [2, 4] | LAL EU/mg of product [2, 5] | C80 % cells ([3]; 0.1 μg/ml) [%] | C80 MFI ([3]; 0.1 μg/ml) | CD40 % cells ([3]; 0.1 μg/ml) [%] | CD86 % cells ([3]; 0.1 μg/ml) [%] | CD86 MFI ([3]; 0.1 μg/ml) | MHCII % cells ([3]; 0.1 μg/ml) [%] | MHCII MFI ([3]; 0.1 μg/ml) | CD40 MFI ([3]; 0.1 μg/ml) | C80 % cells ([3]; 1 μg/ml) [%] | C80 MFI ([3]; 1 μg/ml) | CD40 % cells ([3]; 1 μg/ml) [%] | CD86 % cells ([3]; 1 μg/ml) [%] | CD86 MFI ([3]; 1 μg/ml) | LAL EU/mg of product [2] | LAL ng of LPS equivalent per mg of product [2] | further results
CCCCCCCCCCCC(=O)O[C@H](CCCCCCCCCCC)CC(=O)N[C@H](CC(=O)O)C(=O)NCCC[C@H](COC(=O)CCCCCNC(=O)CCC(=O)OC[C@@H]1C=C[C@H](n2cc(C)c(=O)[nH]c2=O)O1)NC(=O)C[C@H](O)CCCCCCCCCCC [OM-197-MC-AC-Succ-d4T] | ~97000 | 510 | 963 | 0.08 ng of LPS equivalent per mg of product | 1.05 EU/mg of product | – | – | – | – | – | – | – | – | – | – | – | – | – | – | – | –
CCCCCCCCCCCC(=O)O[C@H](CCCCCCCCCCC)CC(=O)N[C@H](CC(=O)O)C(=O)NCCC[C@H](COC(=O)CCCCCN)NC(=O)C[C@H](O)CCCCCCCCCCC [OM-197-MC-AC, N—[(R)-3-dodecanoyloxytetradecanoyl]-D-aspartic acid, α-N-{(4R)-5-(6-aminohexanoyloxy)-4-[(R)-3-hydroxytetradecanoylamino]pentyl}amide] | – | – | – | – | – | 41 | 66 | 34 | 37 | 3504 | 38 | 1597 | 446 | 47 | 73 | 48 | 45 | 3791 | – | – | MHCII % cells ([3]; 1 μg/ml): 45%; MHCII MFI ([3]; 1 μg/ml): 1607; CD40 MFI ([3]; 1 μg/ml): 493; C80 % cells ([3]; 10 μg/ml): 53%; C80 MFI ([3]; 10 μg/ml): 97; CD40 % cells ([3]; 10 μg/ml): 55%; CD86 % cells ([3]; 10 μg/ml): 52%; CD86 MFI ([3]; 10 μg/ml): 4162; MHCII % cells ([3]; 10 μg/ml): 49%; MHCII MFI ([3]; 10 μg/ml): 1622; CD40 MFI ([3]; 10 μg/ml): 605; γ IFN production (Leishmania LmCPb antigen): < 100 pg/mL
CCCCCCCCCCCC(=O)O[C@H](CCCCCCCCCCC)CC(=O)NC(CCOP(=O)(O)O)C(=O)NCCCC(COC(=O)CCCCC(O)CO)NC(=O)C[C@H](O)CCCCCCCCCCC (stereo partly drawn) [OM-197-FV6, 3-[(R)-dodecanoyloxytetradecanoylamino]-4oxo-5-aza-9-[(R)-3-hydroxytetradecanoylamino]-decan-1,10-diol 1-dihydrogenphate 10-(6,7-dihydroxyheptanoate)] | – | – | – | – | – | – | – | – | – | – | – | – | – | – | – | – | – | – | 540 EU/mg of product | 43 ng of LPS equivalent per mg of product | anti-(NANP)6P2P30 IgG serologic response ((NANP)6P2P30 antigen): greatly superior to the one observed when injecting antigen alone
CCCCCCCCCCCC(=O)O[C@H](CCCCCCCCCCC)CC(=O)N[C@H](CC(=O)O)C(=O)NCCC[C@H](COC(=O)CCCCC(O)CO)NC(=O)C[C@H](O)CCCCCCCCCCC (stereo partly drawn) [OM-197-MC-FV5, N—[(R)-3-dodecanoyloxytetradecanoylamino]-D-aspartic acid, α-N-{(4R)-5-hydroxy-4-[(R)-3-hydroxytetra-decanoylamino]-pentyl}amide 5-O-(6,7-dihydroxyheptanoate)] | – | – | – | – | – | 42 | 66 | 33 | 37 | 3437 | 40 | 1689 | 442 | 45 | 84 | 44 | 43 | 3888 | 49.3 EU/mg of product | 3.9 ng of LPS equivalent per mg of product | MHCII % cells ([3]; 1 μg/ml): 43%; MHCII MFI ([3]; 1 μg/ml): 1691; CD40 MFI ([3]; 1 μg/ml): 517; C80 % cells ([3]; 10 μg/ml): 48%; C80 MFI ([3]; 10 μg/ml): 97; CD40 % cells ([3]; 10 μg/ml): 54%; CD86 % cells ([3]; 10 μg/ml): 51%; CD86 MFI ([3]; 10 μg/ml): 4097; MHCII % cells ([3]; 10 μg/ml): 48%; MHCII MFI ([3]; 10 μg/ml): 1681; CD40 MFI ([3]; 10 μg/ml): 630
CCCCCCCCCCCC(=O)O[C@H](CCCCCCCCCCC)CC(=O)N[C@H](CC(=O)O)C(=O)NCCC[C@H](COC(=O)CCCCCNC(=O)CCC(=O)OC[C@H]1O[C@@H](n2cc(C)c(=O)[nH]c2=O)C[C@@H]1N=[N+]=[N-])NC(=O)C[C@H](O)CCCCCCCCCCC [OM-197-MC-AC-Succ-AZT] | > 94000 | 61 | 51.9 | 0.11 ng of LPS equivalent per mg of product | 1.34 EU/mg of product | – | – | – | – | – | – | – | – | – | – | – | – | – | – | – | –
CCCCCCCCCCCC(=O)O[C@H](CCCCCCCCCCC)CC(=O)N[C@H](CC(=O)O)C(=O)NCCC[C@H](CO)NC(=O)C[C@H](O)CCCCCCCCCCC [OM-197-MC, N—[(R)-3-dodecanoyloxytetradecanoyl]-D-aspartic acid, α-N-{(4R)-5-hydroxy-4[(R)-3-hydroxytetradecanoylamino]-pentyl}amide] | – | – | – | – | – | – | – | – | – | – | – | – | – | – | – | – | – | – | 88.6 EU/mg of product | 7.4 ng of LPS equivalent per mg of product | anti-(NANP)6P2P30 IgG serologic response ((NANP)6P2P30 antigen): greatly superior to the one observed when injecting antigen alone

— patent publication US8173133B2, “Acyl pseudodipeptides which carry a functionalized auxiliary arm” (OM Pharma, priority 1999, dated 2012)
